According to ChEMBL document CHEMBL2380247, “Synthesis and biological evaluation of novel aliphatic amido-quaternary ammonium salts for anticancer chemotherapy: part II” (2013):
Active and inactive are the calls of the source. No cut-off for these calls is given here.

Experiments:
[1] = tested on: NUGC-3; test: Antiproliferative activity against human NUGC3 cells at 0.3 uM by SRB assay; type: functional
[2] = tested on: NUGC-3; test: Antiproliferative activity against human NUGC3 cells at 0.1 uM by SRB assay; type: functional
[3] = tested on: NUGC-3; test: Antiproliferative activity against human NUGC3 cells at 1 uM by SRB assay; type: functional
[4] = tested on: NUGC-3; test: Antiproliferative activity against human NUGC3 cells at 10 uM by SRB assay; type: functional
[5] = tested on: NUGC-3; test: Antiproliferative activity against human NUGC3 cells at 3 uM by SRB assay; type: functional
[6] = tested on: MDA-MB-231; test: Antiproliferative activity against human MDA-MB-231 cells at 0.1 uM by SRB assay; type: functional
[7] = tested on: MDA-MB-231; test: Antiproliferative activity against human MDA-MB-231 cells at 0.3 uM by SRB assay; type: functional
[8] = tested on: MDA-MB-231; test: Antiproliferative activity against human MDA-MB-231 cells at 1 uM by SRB assay; type: functional
[9] = tested on: MDA-MB-231; test: Antiproliferative activity against human MDA-MB-231 cells at 10 uM by SRB assay; type: functional
[10] = tested on: MDA-MB-231; test: Antiproliferative activity against human MDA-MB-231 cells at 3 uM by SRB assay; type: functional
[11] = tested on: ACHN; test: Antiproliferative activity against human ACHN cells at 0.1 uM by SRB assay; type: functional
[12] = tested on: ACHN; test: Antiproliferative activity against human ACHN cells at 1 uM by SRB assay; type: functional
[13] = tested on: ACHN; test: Antiproliferative activity against human ACHN cells at 0.3 uM by SRB assay; type: functional
[14] = tested on: ACHN; test: Antiproliferative activity against human ACHN cells at 3 uM by SRB assay; type: functional
[15] = tested on: ACHN; test: Antiproliferative activity against human ACHN cells at 10 uM by SRB assay; type: functional
[16] = tested on: NCI-H23; test: Antiproliferative activity against human NCI-H23 cells at 0.3 uM by SRB assay; type: functional
[17] = tested on: NCI-H23; test: Antiproliferative activity against human NCI-H23 cells at 0.1 uM by SRB assay; type: functional
[18] = tested on: NCI-H23; test: Antiproliferative activity against human NCI-H23 cells at 3 uM by SRB assay; type: functional
[19] = tested on: NCI-H23; test: Antiproliferative activity against human NCI-H23 cells at 1 uM by SRB assay; type: functional
[20] = tested on: NCI-H23; test: Antiproliferative activity against human NCI-H23 cells at 10 uM by SRB assay; type: functional
[21] = tested on: PC-3; test: Antiproliferative activity against human PC3 cells at 0.1 uM by SRB assay; type: functional
[22] = tested on: PC-3; test: Antiproliferative activity against human PC3 cells at 1 uM by SRB assay; type: functional
[23] = tested on: PC-3; test: Antiproliferative activity against human PC3 cells at 0.3 uM by SRB assay; type: functional
[24] = tested on: PC-3; test: Antiproliferative activity against human PC3 cells at 3 uM by SRB assay; type: functional
[25] = tested on: HCT-15; test: Antiproliferative activity against human HCT15 cells at 0.1 uM by SRB assay; type: functional
[26] = tested on: PC-3; test: Antiproliferative activity against human PC3 cells at 10 uM by SRB assay; type: functional
[27] = tested on: HCT-15; test: Antiproliferative activity against human HCT15 cells at 0.3 uM by SRB assay; type: functional
[28] = tested on: HCT-15; test: Antiproliferative activity against human HCT15 cells at 3 uM by SRB assay; type: functional
[29] = tested on: HCT-15; test: Antiproliferative activity against human HCT15 cells at 1 uM by SRB assay; type: functional
[30] = tested on: HCT-15; test: Antiproliferative activity against human HCT15 cells at 10 uM by SRB assay; type: functional
[31] = target: Rho-related GTP-binding protein RhoB (Homo sapiens) (UniProt P62745); test: Transactivation of RhoB in human HeLa cells by luciferase reporter assay; type: cell-based
[32] = tested on: NCI-H23; test: Antiproliferative activity against human NCI-H23 cells by SRB assay; type: functional
[33] = tested on: NUGC-3; test: Antiproliferative activity against human NUGC3 cells by SRB assay; type: functional
[34] = tested on: HCT-15; test: Antiproliferative activity against human HCT15 cells by SRB assay; type: functional
[35] = tested on: ACHN; test: Antiproliferative activity against human ACHN cells by SRB assay; type: functional
[36] = tested on: MDA-MB-231; test: Antiproliferative activity against human MDA-MB-231 cells by SRB assay; type: functional
[37] = tested on: PC-3; test: Antiproliferative activity against human PC3 cells by SRB assay; type: functional

Chain of Rho-related GTP-binding protein RhoB (Homo sapiens) (P62745 whole entry): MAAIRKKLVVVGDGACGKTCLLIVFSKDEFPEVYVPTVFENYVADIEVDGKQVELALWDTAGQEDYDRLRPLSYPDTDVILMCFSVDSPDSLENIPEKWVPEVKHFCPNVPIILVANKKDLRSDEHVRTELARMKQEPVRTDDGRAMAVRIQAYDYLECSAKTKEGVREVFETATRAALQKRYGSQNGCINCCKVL

| SMILES | growth, % of control at 0.3 µM [1] | growth, % of control at 0.1 µM [2] | growth, % of control at 1 µM [3] | growth, % of control at 10 µM [4] | growth, % of control at 3 µM [5] | growth, % of control at 0.1 µM [6] | growth, % of control at 0.3 µM [7] | growth, % of control at 1 µM [8] | growth, % of control at 10 µM [9] | growth, % of control at 3 µM [10] | growth, % of control at 0.1 µM [11] | growth, % of control at 1 µM [12] | growth, % of control at 0.3 µM [13] | growth, % of control at 3 µM [14] | growth, % of control at 10 µM [15] | GI50 [32] | GI50 [33] | GI50 [35] | GI50 [36] | GI50 [37] | also measured |
| --- | --- | --- | --- | --- | --- | --- | --- | --- | --- | --- | --- | --- | --- | --- | --- | --- | --- | --- | --- | --- | --- |
| CCCCCCCCCCCCCC(=O)N(C)CCC[N+](C)(C)C | 70.3% | 85.1% | 35.7% | 13.7% | 23.3% | 95.2% | 98.7% | 88.9% | 23.8% | 54.6% | 81.1% | 72.4% | 82.2% | 41.2% | 21.2% | 560 nM | 320 nM | 1010 nM | 1780 nM | 320 nM | growth, % of control at 0.3 µM [16]: 99.1%; growth, % of control at 0.1 µM [17]: 97.3%; growth, % of control at 3 µM [18]: 8.98%; growth, % of control at 1 µM [19]: 61.8%; growth, % of control at 10 µM [20]: -5.73%; growth, % of control at 0.1 µM [21]: 86.7%; growth, % of control at 1 µM [22]: 32.1%; growth, % of control at 0.3 µM [23]: 87.1%; growth, % of control at 3 µM [24]: -1.93%; growth, % of control at 0.1 µM [25]: 88%; growth, % of control at 10 µM [26]: -4.36%; growth, % of control at 0.3 µM [27]: 90.9%; growth, % of control at 3 µM [28]: 62%; growth, % of control at 1 µM [29]: 82.6%; growth, % of control at 10 µM [30]: 16.5%; Activity [31]: Active; GI50 [34]: 1720 nM |
| CCCCCCCCCCCCCCCC(=O)N(C)CC[N+](CC)(CC)Cc1ccccc1 | 84.8% | 92.7% | 31.4% | -9.3% | 1.3% | 105% | 96.5% | 82.1% | -4.4% | 33.2% | 83.4% | 52.3% | 86.3% | 28% | 1.6% | 1220 nM | 360 nM | 600 nM | 1130 nM | 310 nM | growth, % of control at 0.3 µM [16]: 112%; growth, % of control at 0.1 µM [17]: 113%; growth, % of control at 3 µM [18]: 39.7%; growth, % of control at 1 µM [19]: 75.4%; growth, % of control at 10 µM [20]: 6.5%; growth, % of control at 0.1 µM [21]: 86.6%; growth, % of control at 1 µM [22]: 25.8%; growth, % of control at 0.3 µM [23]: 80.4%; growth, % of control at 3 µM [24]: 1.4%; growth, % of control at 0.1 µM [25]: 100%; growth, % of control at 10 µM [26]: -13.9%; growth, % of control at 0.3 µM [27]: 101%; growth, % of control at 3 µM [28]: 92.8%; growth, % of control at 1 µM [29]: 99.4%; growth, % of control at 10 µM [30]: 71.1%; GI50 [34]: > 10000 nM |
| CCCCCCCCCCCCCCCCCC(=O)NCC(C)(C)C[N+](C)(C)CC | 69.6% | 83.1% | 52.5% | 2.11% | 14.8% | 87.8% | 79.1% | 70.4% | 19.9% | 40.4% | 91.5% | 75.5% | 82.9% | 50% | 33% | 980 nM | 420 nM | 1950 nM | 1120 nM | 300 nM | growth, % of control at 0.3 µM [16]: 97.7%; growth, % of control at 0.1 µM [17]: 95.1%; growth, % of control at 3 µM [18]: 29.8%; growth, % of control at 1 µM [19]: 74.7%; growth, % of control at 10 µM [20]: -18.3%; growth, % of control at 0.1 µM [21]: 89.5%; growth, % of control at 1 µM [22]: 21.6%; growth, % of control at 0.3 µM [23]: 82.2%; growth, % of control at 3 µM [24]: -38.3%; growth, % of control at 0.1 µM [25]: 98%; growth, % of control at 10 µM [26]: -46.2%; growth, % of control at 0.3 µM [27]: 96.7%; growth, % of control at 3 µM [28]: 61.6%; growth, % of control at 1 µM [29]: 86.8%; growth, % of control at 10 µM [30]: 32.6%; GI50 [34]: 2740 nM |
| C=CC[N+]1(CC)CCN(C(=O)CCCCCCCCCCCCCCC)CC1 |  |  |  |  |  |  |  |  |  |  |  |  |  |  |  | 880 nM | 270 nM | 500 nM | 680 nM | 370 nM | Activity [31]: Active |
